# Results taken from ChEMBL document CHEMBL5724914, “Linking interpersonal differences in gut microbiota composition and drug biotransformation activity” (2024).
# Test: (§1) The drug is tested on Z-019 corresponding to rat gut metagenome with ENA study accession number: PRJEB37062 and ENA sample accession number: ERS12561818 for biotransformation under anaerobic condition. The drug concentrations were measured over 9 timepoints collected between 0 and 24 hours of incubation by liquid-chromatography-coupled mass spectrometry (LC–MS)
# Details: 2 µM
# Note: call rule not given here.
row,Bacterial Biotransformation,SMILES
1,Compound NOT metabolized,CN1CCc2c(c3ccccc3n2Cc2ccccc2)C1.CN1CCc2c(c3ccccc3n2Cc2ccccc2)C1.O=S(=O)(O)c1cccc2c(S(=O)(=O)O)cccc12
2,Compound NOT metabolized,COC1=CC(=O)C[C@@H](C)[C@]12Oc1c(Cl)c(OC)cc(OC)c1C2=O [GRISEOFULVIN]

# Test: as §1, with “on Z-017” for “on Z-019”, “to mouse” for “to rat”, “number: ERS12561816” for “number: ERS12561818”
# Details: 2 µM
row,Bacterial Biotransformation,SMILES
1,Compound NOT metabolized,CN1CCc2c(c3ccccc3n2Cc2ccccc2)C1.CN1CCc2c(c3ccccc3n2Cc2ccccc2)C1.O=S(=O)(O)c1cccc2c(S(=O)(=O)O)cccc12
2,Compound metabolized,COC1=CC(=O)C[C@@H](C)[C@]12Oc1c(Cl)c(OC)cc(OC)c1C2=O [GRISEOFULVIN]

# Test: as §1, with “on Z-016” for “on Z-019”, “to mouse” for “to rat”, “number: ERS12561815” for “number: ERS12561818”
# Details: 2 µM
row,Bacterial Biotransformation,SMILES
1,Compound NOT metabolized,CN1CCc2c(c3ccccc3n2Cc2ccccc2)C1.CN1CCc2c(c3ccccc3n2Cc2ccccc2)C1.O=S(=O)(O)c1cccc2c(S(=O)(=O)O)cccc12
2,Compound metabolized,COC1=CC(=O)C[C@@H](C)[C@]12Oc1c(Cl)c(OC)cc(OC)c1C2=O [GRISEOFULVIN]

# Test: as §1, with “Z-014” for “Z-019”, “ERS12561814” for “ERS12561818”
# Details: 2 µM
row,Bacterial Biotransformation,SMILES
1,Compound NOT metabolized,CN1CCc2c(c3ccccc3n2Cc2ccccc2)C1.CN1CCc2c(c3ccccc3n2Cc2ccccc2)C1.O=S(=O)(O)c1cccc2c(S(=O)(=O)O)cccc12
2,Compound metabolized,COC1=CC(=O)C[C@@H](C)[C@]12Oc1c(Cl)c(OC)cc(OC)c1C2=O [GRISEOFULVIN]

# Test: as §1, with “on Z-013” for “on Z-019”, “to rabbit” for “to rat”, “number: ERS12561813” for “number: ERS12561818”
# Details: 2 µM
row,Bacterial Biotransformation,SMILES
1,Compound NOT metabolized,CN1CCc2c(c3ccccc3n2Cc2ccccc2)C1.CN1CCc2c(c3ccccc3n2Cc2ccccc2)C1.O=S(=O)(O)c1cccc2c(S(=O)(=O)O)cccc12
2,Compound metabolized,COC1=CC(=O)C[C@@H](C)[C@]12Oc1c(Cl)c(OC)cc(OC)c1C2=O [GRISEOFULVIN]

# Test: as §1, with “Z-008” for “Z-019”, “to” for “to rat gut”, “ERS12561808” for “ERS12561818”
# Details: 2 µM
row,Bacterial Biotransformation,SMILES
1,Compound NOT metabolized,CN1CCc2c(c3ccccc3n2Cc2ccccc2)C1.CN1CCc2c(c3ccccc3n2Cc2ccccc2)C1.O=S(=O)(O)c1cccc2c(S(=O)(=O)O)cccc12
2,Compound NOT metabolized,COC1=CC(=O)C[C@@H](C)[C@]12Oc1c(Cl)c(OC)cc(OC)c1C2=O [GRISEOFULVIN]

# Test: as §1, with “on WLS-310” for “on Z-019”, “to human” for “to rat”, “number: ERS12561785” for “number: ERS12561818”
# Details: 2 µM
row,Bacterial Biotransformation,SMILES
1,Compound NOT metabolized,CN1CCc2c(c3ccccc3n2Cc2ccccc2)C1.CN1CCc2c(c3ccccc3n2Cc2ccccc2)C1.O=S(=O)(O)c1cccc2c(S(=O)(=O)O)cccc12
2,Compound metabolized,COC1=CC(=O)C[C@@H](C)[C@]12Oc1c(Cl)c(OC)cc(OC)c1C2=O [GRISEOFULVIN]

# Test: as §1, with “on WLS-220” for “on Z-019”, “to human” for “to rat”, “number: ERS12561769” for “number: ERS12561818”
# Details: 2 µM
row,Bacterial Biotransformation,SMILES
1,Compound metabolized,CN1CCc2c(c3ccccc3n2Cc2ccccc2)C1.CN1CCc2c(c3ccccc3n2Cc2ccccc2)C1.O=S(=O)(O)c1cccc2c(S(=O)(=O)O)cccc12
2,Compound metabolized,COC1=CC(=O)C[C@@H](C)[C@]12Oc1c(Cl)c(OC)cc(OC)c1C2=O [GRISEOFULVIN]

# Test: as §1, with “on WLS-086” for “on Z-019”, “to human” for “to rat”, “number: ERS12561752” for “number: ERS12561818”
# Details: 2 µM
row,Bacterial Biotransformation,SMILES
1,Compound NOT metabolized,CN1CCc2c(c3ccccc3n2Cc2ccccc2)C1.CN1CCc2c(c3ccccc3n2Cc2ccccc2)C1.O=S(=O)(O)c1cccc2c(S(=O)(=O)O)cccc12
2,Compound metabolized,COC1=CC(=O)C[C@@H](C)[C@]12Oc1c(Cl)c(OC)cc(OC)c1C2=O [GRISEOFULVIN]

# Test: as §1, with “on WLS-073” for “on Z-019”, “to human” for “to rat”, “number: ERS12561749” for “number: ERS12561818”
# Details: 2 µM
row,Bacterial Biotransformation,SMILES
1,Compound NOT metabolized,CN1CCc2c(c3ccccc3n2Cc2ccccc2)C1.CN1CCc2c(c3ccccc3n2Cc2ccccc2)C1.O=S(=O)(O)c1cccc2c(S(=O)(=O)O)cccc12
2,Compound metabolized,COC1=CC(=O)C[C@@H](C)[C@]12Oc1c(Cl)c(OC)cc(OC)c1C2=O [GRISEOFULVIN]

# Test: as §1, with “on WLS-038” for “on Z-019”, “to human” for “to rat”, “number: ERS12561745” for “number: ERS12561818”
# Details: 2 µM
row,Bacterial Biotransformation,SMILES
1,Compound NOT metabolized,CN1CCc2c(c3ccccc3n2Cc2ccccc2)C1.CN1CCc2c(c3ccccc3n2Cc2ccccc2)C1.O=S(=O)(O)c1cccc2c(S(=O)(=O)O)cccc12
2,Compound metabolized,COC1=CC(=O)C[C@@H](C)[C@]12Oc1c(Cl)c(OC)cc(OC)c1C2=O [GRISEOFULVIN]

# Test: as §1, with “on WLS-007” for “on Z-019”, “to human” for “to rat”, “number: ERS12561742” for “number: ERS12561818”
# Details: 2 µM
row,Bacterial Biotransformation,SMILES
1,Compound NOT metabolized,CN1CCc2c(c3ccccc3n2Cc2ccccc2)C1.CN1CCc2c(c3ccccc3n2Cc2ccccc2)C1.O=S(=O)(O)c1cccc2c(S(=O)(=O)O)cccc12
2,Compound metabolized,COC1=CC(=O)C[C@@H](C)[C@]12Oc1c(Cl)c(OC)cc(OC)c1C2=O [GRISEOFULVIN]

# Details: human gut metagenome, 24 h, 2 µM
row,Bacterial Biotransformation,SMILES
1,Compound metabolized,CN1CCc2c(c3ccccc3n2Cc2ccccc2)C1.CN1CCc2c(c3ccccc3n2Cc2ccccc2)C1.O=S(=O)(O)c1cccc2c(S(=O)(=O)O)cccc12
2,Compound NOT metabolized,COC1=CC(=O)C[C@@H](C)[C@]12Oc1c(Cl)c(OC)cc(OC)c1C2=O [GRISEOFULVIN]

# Details: human gut metagenome, 24 h, 2 µM
# Remark: another data set of the same source
row,Bacterial Biotransformation,SMILES
1,Compound metabolized,CN1CCc2c(c3ccccc3n2Cc2ccccc2)C1.CN1CCc2c(c3ccccc3n2Cc2ccccc2)C1.O=S(=O)(O)c1cccc2c(S(=O)(=O)O)cccc12
2,Compound metabolized,COC1=CC(=O)C[C@@H](C)[C@]12Oc1c(Cl)c(OC)cc(OC)c1C2=O [GRISEOFULVIN]

# Details: human gut metagenome, 24 h, 2 µM
# Remark: another data set of the same source
row,Bacterial Biotransformation,SMILES
1,Compound metabolized,CN1CCc2c(c3ccccc3n2Cc2ccccc2)C1.CN1CCc2c(c3ccccc3n2Cc2ccccc2)C1.O=S(=O)(O)c1cccc2c(S(=O)(=O)O)cccc12
2,Compound NOT metabolized,COC1=CC(=O)C[C@@H](C)[C@]12Oc1c(Cl)c(OC)cc(OC)c1C2=O [GRISEOFULVIN]

# Details: human gut metagenome, 24 h, 2 µM
# Remark: another data set of the same source
row,Bacterial Biotransformation,SMILES
1,Compound NOT metabolized,CN1CCc2c(c3ccccc3n2Cc2ccccc2)C1.CN1CCc2c(c3ccccc3n2Cc2ccccc2)C1.O=S(=O)(O)c1cccc2c(S(=O)(=O)O)cccc12
2,Compound metabolized,COC1=CC(=O)C[C@@H](C)[C@]12Oc1c(Cl)c(OC)cc(OC)c1C2=O [GRISEOFULVIN]

# Details: human gut metagenome, 24 h, 2 µM
# Remark: another data set of the same source
row,Bacterial Biotransformation,SMILES
1,Compound NOT metabolized,CN1CCc2c(c3ccccc3n2Cc2ccccc2)C1.CN1CCc2c(c3ccccc3n2Cc2ccccc2)C1.O=S(=O)(O)c1cccc2c(S(=O)(=O)O)cccc12
2,Compound metabolized,COC1=CC(=O)C[C@@H](C)[C@]12Oc1c(Cl)c(OC)cc(OC)c1C2=O [GRISEOFULVIN]

# Details: human gut metagenome, 24 h, 2 µM
# Remark: another data set of the same source
row,Bacterial Biotransformation,SMILES
1,Compound NOT metabolized,CN1CCc2c(c3ccccc3n2Cc2ccccc2)C1.CN1CCc2c(c3ccccc3n2Cc2ccccc2)C1.O=S(=O)(O)c1cccc2c(S(=O)(=O)O)cccc12
2,Compound metabolized,COC1=CC(=O)C[C@@H](C)[C@]12Oc1c(Cl)c(OC)cc(OC)c1C2=O [GRISEOFULVIN]

# Details: human gut metagenome, 24 h, 2 µM
# Remark: another data set of the same source
row,Bacterial Biotransformation,SMILES
1,Compound metabolized,CN1CCc2c(c3ccccc3n2Cc2ccccc2)C1.CN1CCc2c(c3ccccc3n2Cc2ccccc2)C1.O=S(=O)(O)c1cccc2c(S(=O)(=O)O)cccc12
2,Compound metabolized,COC1=CC(=O)C[C@@H](C)[C@]12Oc1c(Cl)c(OC)cc(OC)c1C2=O [GRISEOFULVIN]

# Details: human gut metagenome, 24 h, 2 µM
# Remark: another data set of the same source
row,Bacterial Biotransformation,SMILES
1,Compound NOT metabolized,CN1CCc2c(c3ccccc3n2Cc2ccccc2)C1.CN1CCc2c(c3ccccc3n2Cc2ccccc2)C1.O=S(=O)(O)c1cccc2c(S(=O)(=O)O)cccc12
2,Compound metabolized,COC1=CC(=O)C[C@@H](C)[C@]12Oc1c(Cl)c(OC)cc(OC)c1C2=O [GRISEOFULVIN]
